# Measurements reported in patent US20060069132A1, “Azolecarboxamide herbicides” (priority 2004, published 2006).
# Experiments:
# giant foxtail [1] = test: Test B pre-/postemergence herbicide test; assay type: in vivo, Setaria faberi; conditions: for Plant response rating, Foxtail, Giant: preemergence; for Foxtail, Giant plant response rating: postemergence, visual rating, scale 0 (no effect) to 100 (complete control)
# In short: (§1)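 Flooded paddy rice and barnyardgrass were treated at the 2-leaf stage; upland plantings received compound either on sown seed or on 1- to 4-leaf seedlings. All were kept 13–15 days in a greenhouse and scored visually, 0–100, relative to untreated plants.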
# Surinam grass = test: Test B pre-/postemergence herbicide test; assay type: in vivo, Urochloa decumbens; conditions: for Plant response rating, Surinam Grass: preemergence; for Surinam Grass plant response rating: postemergence, visual rating, scale 0 (no effect) to 100 (complete control)
# In short: as §1
# velvetleaf [2] = test: Test B pre-/postemergence herbicide test; assay type: in vivo, Abutilon theophrasti; conditions: for Plant response rating, Velvetleaf: preemergence; for Velvetleaf plant response rating: postemergence, visual rating, scale 0 (no effect) to 100 (complete control)
# In short: as §1
# large crabgrass [3] = test: Test A pre-/postemergence herbicide test; assay type: in vivo, Digitaria sanguinalis
# In short: (§2)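 Seeds sown in sandy loam received a preemergence directed soil spray of compound in non-phytotoxic solvent with surfactant; postemergence plants (2–10 cm, one- to two-leaf stage) were sprayed to runoff at the same time. After ~10 days in greenhouse, injury was rated visually versus untreated controls (0 = no effect, 100 = complete control).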
# large crabgrass [4] = test: Test B pre-/postemergence herbicide test; assay type: in vivo, Digitaria sanguinalis; conditions: for Plant response rating, Crabgrass, Large: preemergence; for Crabgrass, Large plant response rating: postemergence, visual rating, scale 0 (no effect) to 100 (complete control)
# In short: as §1
# [5] = system: small flower umbrella sedge; test: Test B flooded paddy test; assay type: in vivo, Cyperus difformis; conditions: 1000 g ai/ha, visual rating, scale 0 to 100 (0 no effect, 100 complete control), 13 to 15 days
# In short: (§3)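 Greenhouse test; postemergence application to plants at 1–4 leaves (2–18 cm); paddy species at 2 leaves; evaluated visually vs controls at 13–15 days; scale 0–100 (100 = complete control).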
# wheat = test: Test B postemergence herbicide test; assay type: in vivo, Triticum aestivum; parameters: key to Wheat plant response rating: 0 = no effect, 100 = complete control; conditions: postemergence, visual rating, scale 0 (no effect) to 100 (complete control)
# In short: (§4)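 Each value is a visual 0–100 response rating taken against controls 13 to 15 days after treatment in the greenhouse. Plants received formulated chemical postemergence at the 1- to 4-leaf stage or, in flooded paddy, at the 2-leaf stage.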
# wild oat = test: Test B postemergence herbicide test; assay type: in vivo, Avena fatua; conditions: postemergence, visual rating, scale 0 (no effect) to 100 (complete control)
# In short: as §4
# barnyardgrass [6] = test: Test A pre-/postemergence herbicide test; assay type: in vivo, Echinochloa crus-galli
# In short: as §2
# corn = test: Test B pre-/postemergence herbicide test; assay type: in vivo, Zea mays; conditions: for Plant response rating, Corn: preemergence; for Corn plant response rating: postemergence, visual rating, scale 0 (no effect) to 100 (complete control)
# In short: as §1
# redroot pigweed = test: Test A pre-/postemergence herbicide test; assay type: in vivo, Amaranthus retroflexus
# In short: as §2
# ducksalad = test: Test B flooded paddy test; assay type: in vivo, Heteranthera limosa; conditions: 1000 g ai/ha, visual rating, scale 0 to 100 (0 no effect, 100 complete control), 13 to 15 days
# In short: as §3
# morningglory [7] = test: Test A pre-/postemergence herbicide test; assay type: in vivo, Ipomoea spp.
# In short: as §2
# cocklebur = test: Test B pre-/postemergence herbicide test; assay type: in vivo, Xanthium strumarium; conditions: for Plant response rating, Cocklebur: preemergence; for Cocklebur plant response rating: postemergence, visual rating, scale 0 (no effect) to 100 (complete control)
# In short: (§5)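 Greenhouse pot assay with simultaneous preemergence (treated seed) and postemergence (2–18 cm seedlings) applications of surfactant-containing, non-phytotoxic solvent formulations. Response scored visually 13–15 days later on a 0–100 scale, 100 meaning complete control.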
# giant foxtail [8] = test: Test A pre-/postemergence herbicide test; assay type: in vivo, Setaria faberi
# In short: as §2
# velvetleaf [9] = test: Test A pre-/postemergence herbicide test; assay type: in vivo, Abutilon theophrasti
# In short: as §2
# pigweed = test: Test B pre-/postemergence herbicide test; assay type: in vivo, Amaranthus retroflexus; conditions: for Plant response rating, Pigweed: preemergence; for Pigweed plant response rating: postemergence, visual rating, scale 0 (no effect) to 100 (complete control)
# In short: as §1
# lambsquarters = test: Test B pre-/postemergence herbicide test; assay type: in vivo, Chenopodium album; conditions: for Plant response rating, Lambsquarters: preemergence; for Lambsquarters plant response rating: postemergence, visual rating, scale 0 (no effect) to 100 (complete control)
# In short: as §1
# rice [10] = test: Test B pre-/postemergence herbicide test; assay type: in vivo, Oryza sativa; conditions: 500 g ai/ha; visual rating 0-100, 0 no effect, 100 complete control; preemergence
# In short: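 Evaluation is visual, comparing treated with control plants on a scale where 0 means no effect and 100 means full control. Treatments were preemergence, or postemergence on seedlings 2–18 cm tall, and held 13–15 days in the greenhouse.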
# blackgrass = test: Test B postemergence herbicide test; assay type: in vivo, Alopecurus myosuroides; conditions: postemergence, visual rating, scale 0 (no effect) to 100 (complete control)
# In short: as §3
# barnyardgrass [11] = test: Test B pre-/postemergence herbicide test; assay type: in vivo, Echinochloa crus-galli; conditions: for Plant response rating, Barnyardgrass: preemergence; for Barnyardgrass plant response rating: postemergence, visual rating, scale 0 (no effect) to 100 (complete control)
# In short: as §5
# barnyardgrass [12] = test: Test B flooded paddy test; assay type: in vivo, Echinochloa crus-galli; conditions: 1000 g ai/ha, visual rating, scale 0 to 100 (0 no effect, 100 complete control), 13 to 15 days
# In short: as §3
# rice [13] = test: Test B flooded paddy test; assay type: in vivo, Oryza sativa; conditions: 1000 g ai/ha, visual rating, scale 0 to 100 (0 no effect, 100 complete control), 13 to 15 days
# In short: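 After treating 2-leaf paddy plants or 2–18 cm postemergence plants (1 to 4 leaves) with formulated chemical, researchers kept them in a greenhouse for 13–15 days. Effects were judged visually versus controls: 0 indicates none, 100 total control.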
# morningglory [14] = test: Test B pre-/postemergence herbicide test; assay type: in vivo, Ipomoea coccinea; conditions: for Plant response rating, Morningglory: preemergence; for Morningglory plant response rating: postemergence, visual rating, scale 0 (no effect) to 100 (complete control)
# In short: as §5
# [15] = 500 g ai/ha, visual rating 0-100, 0 no effect, 100 complete control
# [16] = 125 g ai/ha, 0 to 100 scale, 0 is no effect, 100 is complete control
# [17] = Postemergence, 250 g ai/ha, 0 to 100 scale, 0 no effect, 100 complete control
# [18] = Postemergence, 1000 g ai/ha, 0 to 100 scale, 0 no effect, 100 complete control
# [19] = Preemergence, 1000 g ai/ha, visual rating, 0 to 100 scale (0 no effect, 100 complete control)
# [20] = preemergence, 250 g ai/ha, visual injury, 0 to 100 scale (0 no effect, 100 complete control)
structure (smiles),measurement,setting,value
CC(C)(C)c1cc(C(=O)Nc2cccc(SC(F)(F)F)c2)n(CCF)n1 [Compound 132],"Plant response rating, Foxtail, Giant",giant foxtail [1]; [15],80
same,"Foxtail, Giant plant response rating",giant foxtail [1]; 125 g ai/ha,30
same,"Foxtail, Giant plant response rating",giant foxtail [1]; 500 g ai/ha,40
same,"Plant response rating, Foxtail, Giant",giant foxtail [1]; [16],30
same,"Plant response rating, Surinam Grass",Surinam grass; [15],70
same,Surinam Grass plant response rating,Surinam grass; 125 g ai/ha,40
same,Surinam Grass plant response rating,Surinam grass; 500 g ai/ha,60
same,"Plant response rating, Surinam Grass",Surinam grass; [16],40
same,"Plant response rating, Velvetleaf",velvetleaf [2]; [15],70
same,Velvetleaf plant response rating,velvetleaf [2]; 125 g ai/ha,60
same,Velvetleaf plant response rating,velvetleaf [2]; 500 g ai/ha,60
same,"Plant response rating, Velvetleaf",velvetleaf [2]; [16],30
same,"Crabgrass, Large plant response rating",large crabgrass [3]; [17],20
same,"Plant response rating, Crabgrass, Large",large crabgrass [3]; [18],25
same,"Crabgrass, Large plant response rating",large crabgrass [3]; [19],35
same,"Crabgrass, Large plant response rating",large crabgrass [3]; [20],20
same,"Plant response rating, Crabgrass, Large",large crabgrass [4]; [15],100
same,"Crabgrass, Large plant response rating",large crabgrass [4]; 125 g ai/ha,30
same,"Crabgrass, Large plant response rating",large crabgrass [4]; 500 g ai/ha,40
same,"Plant response rating, Crabgrass, Large",large crabgrass [4]; [16],90
same,"Sedge, Umbrella plant response rating",[5],40
same,Wheat plant response rating,wheat; 125 g ai/ha,10
same,Wheat plant response rating,wheat; 500 g ai/ha,20
same,"Oat, Wild plant response rating",wild oat; 125 g ai/ha,20
same,"Oat, Wild plant response rating",wild oat; 500 g ai/ha,20
same,Barnyardgrass plant response rating,barnyardgrass [6]; [17],20
same,"Plant response rating, Barnyardgrass",barnyardgrass [6]; [18],30
same,Barnyardgrass plant response rating,barnyardgrass [6]; [19],10
same,Barnyardgrass plant response rating,barnyardgrass [6]; [20],0
same,"Plant response rating, Corn",corn; [15],10
same,Corn plant response rating,corn; 125 g ai/ha,20
same,Corn plant response rating,corn; 500 g ai/ha,20
same,"Plant response rating, Corn",corn; [16],10
same,Pigweed plant response rating,redroot pigweed; [17],75
same,"Plant response rating, Pigweed",redroot pigweed; [18],65
same,Pigweed plant response rating,redroot pigweed; [19],40
same,Pigweed plant response rating,redroot pigweed; [20],30
same,Ducksalad plant response rating,ducksalad,10
same,Morningglory plant response rating,morningglory [7]; [17],10
same,"Plant response rating, Morningglory",morningglory [7]; [18],20
same,Morningglory plant response rating,morningglory [7]; [19],10
same,Morningglory plant response rating,morningglory [7]; [20],5
same,"Plant response rating, Cocklebur",cocklebur; [15],0
same,Cocklebur plant response rating,cocklebur; 125 g ai/ha,90
same,Cocklebur plant response rating,cocklebur; 500 g ai/ha,90
same,"Plant response rating, Cocklebur",cocklebur; [16],0
same,"Foxtail, Giant plant response rating",giant foxtail [8]; [17],15
same,"Plant response rating, Foxtail, Giant",giant foxtail [8]; [18],20
same,"Foxtail, Giant plant response rating",giant foxtail [8]; [19],40
same,"Foxtail, Giant plant response rating",giant foxtail [8]; [20],25
same,Velvetleaf plant response rating,velvetleaf [9]; [17],20
same,"Plant response rating, Velvetleaf",velvetleaf [9]; [18],30
same,Velvetleaf plant response rating,velvetleaf [9]; [19],20
same,Velvetleaf plant response rating,velvetleaf [9]; [20],15
same,"Plant response rating, Pigweed",pigweed; [15],100
same,Pigweed plant response rating,pigweed; 125 g ai/ha,70
same,Pigweed plant response rating,pigweed; 500 g ai/ha,90
same,"Plant response rating, Pigweed",pigweed; [16],100
same,"Plant response rating, Lambsquarters",lambsquarters; [15],90
same,Lambsquarters plant response rating,lambsquarters; 125 g ai/ha,100
same,Lambsquarters plant response rating,lambsquarters; 500 g ai/ha,100
same,"Plant response rating, Lambsquarters",lambsquarters; [16],60
same,"Plant response rating, Rice",rice [10],0
same,Blackgrass plant response rating,blackgrass; 125 g ai/ha,10
same,Blackgrass plant response rating,blackgrass; 500 g ai/ha,40
same,"Plant response rating, Barnyardgrass",barnyardgrass [11]; [15],50
same,Barnyardgrass plant response rating,barnyardgrass [11]; 125 g ai/ha,50
same,Barnyardgrass plant response rating,barnyardgrass [11]; 500 g ai/ha,60
same,"Plant response rating, Barnyardgrass",barnyardgrass [11]; [16],10
same,Barnyardgrass plant response rating,barnyardgrass [12],30
same,Rice plant response rating,rice [13],0
same,"Plant response rating, Morningglory",morningglory [14]; [15],20
same,Morningglory plant response rating,morningglory [14]; 125 g ai/ha,60
same,Morningglory plant response rating,morningglory [14]; 500 g ai/ha,70
same,"Plant response rating, Morningglory",morningglory [14]; [16],10
